Assay results as given in article PMC12108757, “Discovery and Characterisation of Novel Poly-Histidine-Poly-Glycine Peptides as Matrix Metalloproteinase Inhibitors” (Biomolecules, 2025).

Columns and labels:
human MMP-1 = test: MMP-1 proteinase inhibition assay (time-dependent β-casein degradation, SDS-PAGE); type: biochemical; conditions: for catalytic suppression of MMP-1: proteinase inhibition assay, summary in discussion; for inhibition of MMP-1 activity in hydrolysing β-casein: 0–24 h, MMP-1 pre-incubated with peptide (1:25 molar ratio), sodium phosphate buffer pH 6.5, 37 °C, 12% SDS-PAGE, Coomassie
Experimental: Proteolytic activity was assessed using β-casein (0.08 mM) as a substrate in a time-course assay (0–24 h). Enzymatic reactions were initiated by pre-incubating human MMP-1 with synthetic pHpG peptides (1:25 molar ratio) in a sodium phosphate buffer (pH 6.5) at 37 °C for 30 min. The recombinant human MMP-1 protein (rhMMP-1; ≥95% purity), obtained from MedChemExpress (Monmouth Junction, NJ, USA), was expressed in HEK293 cells as an unglycosylated form with a determined molecular weight of 49–61 kDa. The latent proenzyme requires activation via incubation with 1 mM aminophenylmercuric acetate at 37 °C for 2 h to generate the catalytically active form. Reactions were quenched with 5 mM EDTA at designated intervals, followed by electrophoretic separation on 12% SDS-PAGE and Coomassie staining. The negative control was β-casein in the absence of enzymatic catalysis, while water served as a system blank to monitor background interference.

[1] = UV-Vis spectroscopy of pHpGs and zinc–pHpG complexes; type: physicochemical; conditions: 0.1 mM, 200–300 nm, room temperature; for UV–visible wavelength, zinc–pHpG complex: Zn^2+ complex; for UV–visible wavelength, peptide before zinc binding: peptide alone
Experimental: Ultraviolet–visible (UV–Vis) spectrum of pHpGs and zinc–pHpG complexes (0.1 mM) were recorded using a Shimadzu UV-2450 spectrophotometer (Shimadzu Corporation, Kyoto, Japan) in the wavelength range of 200–300 nm at room temperature.

[2] = Circular dichroism (CD) analysis; type: physicochemical; conditions: 0.2 mM, 20 °C, CDNN software
Experimental: The synthetic pHpGs (0.2 mM) were analysed by CD spectroscopy to identify the secondary microstructure, respectively. Settings: scanning range of 180–260 nm, speed of 50 nm·min^−1, bandwidth of 1 nm, and a response time of 0.5 s. Secondary structure proportions (α-helices, β-sheets, β-turns, and random coils) were analysed via CDNN v2.1 software (Applied Photophysics Ltd., Leatherhead, UK).

metalloproteinase = conditions: ref [10]; cited from earlier work
Experimental: Time-dependent β-casein degradation mediated by MMP-1 was analysed. In the absence of pHpG peptides, β-casein was progressively degraded and fully hydrolysed within 24 h (Figure 4A).

SVMP = conditions: ref [10]; cited from earlier work
Excerpt: (§1) In the preceding investigation, we reported the presence of snake venom metalloproteinase in A. squamigera’s venom, which belongs to the Pep_M12B_propeptide family. […] This hypothesis is strongly supported by findings ...

[3] = test system: venom-induced haemorrhage; conditions: ref [10]; cited from earlier work
Excerpt: as §1

HUVECs [4] = test: Scratch wound healing assay; type: cell-based, human; conditions: hVEGF165 25 ng/mL stimulated, serum-free, 12 h, 37 °C; across all groups 3.125–25 μM
Experimental: Human umbilical vein endothelial cells (HUVECs) were procured from the Shanghai Institute of Biochemistry and Cell Biology (Chinese Academy of Sciences, China). For the scratch wound healing assay, HUVECs were seeded in 24-well plates at a density of 1.2 × 10⁵ cells/well and cultured to form confluent monolayers. A linear wound was created by scraping with a sterile pipette tip. Serum-free Dulbecco’s modified Eagle medium containing 25 ng/mL of human vascular endothelial growth factor 165 (hVEGF165) was supplied, followed by the addition of either the pHpG-H7 peptide (3.125 μM, 6.25 μM, 12.5 μM, 25 μM) or water as a control. Cells were incubated for 12 h (37 °C, 5% CO2), and images were captured at 0 h (initial wound area) and 12 h. Wound healing was quantified using ImageJ 1.53t software, with a migration rate calculated as: Mobility (%) = (initial wound area–12 h residual area)/initial wound area × 100%.

HUVECs [5] = test: Trans-well migration assay; type: cell-based, human; conditions: 10% FBS, hVEGF165 25 ng/mL, 24 h, 37 °C; 3.125–25 μM
Experimental: HUVECs (2 × 10^5 cells) were seeded in the upper chamber of a modified Boyden chamber system (BD Sciences, Milpitas, CA, USA). The lower chamber contained medium with 10% FBS, hVEGF165 (25 ng/mL), pHpG-H7 peptide (3.125 μM, 6.25 μM, 12.5 μM, 25 μM), or water. After 24 h incubation (37 °C, 5% CO2), migrated cells on the lower membrane surface were fixed, stained with Crystal Violet, and imaged. Cell migration was quantified using ImageJ software.

HUVECs [6] = test: Tube formation assay (Matrigel); type: cell-based, human; conditions: hVEGF165-stimulated, 1% FBS, 8 h, 37 °C, 3.125–25 μM
Experimental: Matrigel™ Basement Membrane Matrix (BD Bioscience, Franklin Lakes, NJ, USA) was added to a 96-well plate to a total volume of 60 μL per well and polymerised at 37 °C with 5% CO2 for 30 min to form a gel layer. HUVECs (2 × 10^4 cells/well) in the medium with 1% FBS were seeded. Different concentrations of pHpG-H7 peptide (3.125 μM, 6.25 μM, 12.5 μM, 25 μM) were added to each well and incubated for 8 h (37 °C, 5% CO2). Results were detected by phase-contrast microscope (Olympus, Tokyo, Japan) and photographed. At least three representative fields from each well were selected to count the number of branching points.

Row | Sequence | catalytic suppression of MMP-1 (human MMP-1) | inhibition of MMP-1 activity in hydrolysing β-casein (human MMP-1; β-casein 0.08 mM, 30 min) | UV–visible wavelength, zinc–pHpG complex [1] [nm] | UV–visible wavelength, peptide before zinc binding [1] [nm] | Unorderd (random coil) [2] [%] | α-Helix [2] [%] | β-Strand [2] [%] | β-Turn [2] [%] | metalloproteinase-mediated casein hydrolysis (metalloproteinase) | SVMP activity (SVMP) | venom-induced haemorrhage [3] | relative inhibitory effect on MMP-1 among the pHpG peptides (human MMP-1; comparison of pHpG-H5, pHpG-H7, pHpG-H9, β-casein, SDS-PAGE) | earliest time of suppression of MMP-1 activity (human MMP-1; β-casein 0.08 mM, pre-incubation 1:25 molar ratio, pH 6.5, 37 °C, 30 min, SDS-PAGE, 'as early as') [h] | wound closure capability of HUVECs (HUVECs [4]) | HUVECs migration (HUVECs [5]) | anti-angiogenesis effect (tube formation) (HUVECs [6])
1 | EDDHHHHHGVGGGGGGGGGG [pHpG-H5] | potent catalytic suppression | significantly inhibited | 216 | 214 | 29.2 | 12.1 | 40.6 | 21.6 |  |  |  |  |  |  |  | 
2 | EDDHHHHHHHHHGVGGGGGGGGGG [pHpG-H9, Atheris pHpG-1 is equivalent to pHpG-H9, reference compound] | potent catalytic suppression | significantly inhibited | 218 | 210 | 47.5 | 6.3 | 11.7 | 30.7 | inhibits | inhibition of SVMP activity | alleviation of venom-induced haemorrhage |  |  |  |  | 
3 | EDDHHHHHHHGVGGGGGGGGGG [pHpG-H7] | potent catalytic suppression | significantly inhibited | 215 | 212 | 46.4 | 6.2 | 13.6 | 29.4 |  |  |  | most pronounced inhibitory effect | ≤ 0.5 | significantly impaired | inhibited by pHpG-H7 in a dose-dependent manner | anti-angiogenesis effects in a dose-dependent manner
